Results published in patent US9096593B2, “Compounds and methods for kinase modulation, and indications therefor” (Plexxikon Inc., priority 2009, dated 2015).

Tests used:
BCR-FMS/BaF3 cells = BCR-FMS/BaF3 cells (Homo sapiens, UniProt P07333); assay: BCR-FMS/BaF3 cell proliferation assay (ATPlite); type: cell-based
Experimental: Compounds are assessed in a variety of cell based assays. For example BCR-FMS/BaF3, BCR-KIT/BaF3, M-NFS-60, M-07e, and BAC1.2F5 cell proliferation assays are used to assess inhibitory activity of Fms or Kit and MV-4-11 cell proliferation assay is used to assess inhibitory activity in Flt-3. […] On day 1, cells are counted, then centrifuged in a conical tube for 5 minutes at 1000 rpm. The supernatant is removed and cells are re-suspended as follows: • BCR-FMS/BaF3 and BCR-KIT/BaF3: resuspend in growth media+1 mg/mL G418 (without WEHI/IL-3) to 2×10^5 cells/mL. • M-NFS-60: resuspend in growth media +62 ng/mL murine M-CSF to 5×10^5 cells/mL. • M-07e: resuspend in growth media +200 ng/mL human SCF to 5×10^5 cells/mL. • BAC1.2F5: resuspend in growth media +36 ng/mL murine M-CSF to 1.4×10^5 cells/mL. • MV-4-11: resuspend in growth media +10% FBS to 5×10^5 cells/mL. […] On day 2, compound at a maximum concentration of 5 mM is serially diluted 1:3 for a total of 8 point titration with DMSO as a control. A 1 μL aliquot of each dilution point is added to 249 μL growth media and 50 μL is added to a well containing cells, providing 10 μM compound for the maximum concentration point. The cells are incubated for 3 days at 37° C. in 5% CO2. […] ATPlite is added to each well as follows: • BCR-FMS/BaF3 and BCR-KIT/BaF3: 25 μL per well. • M-NFS-60: 25 μL per well. • M-07c: 40 μL per well. • BAC1.2F5: 50 μL per well. • MV-4-11: 40 μL per well. The cells are incubated at room temperature for 10 minutes, then luminescence is read on Safire reader. The measured luminescence correlates directly with cell number, such that the reading as a function of compound concentration is used to determine the IC50 value.

BCR-KIT/BaF3 cells = BCR-KIT/BaF3 cells (Homo sapiens, UniProt P10721); assay: BCR-KIT/BaF3 cell proliferation assay (ATPlite); type: cell-based; conditions: read-out: BCR/BaF3 (IC50 μM) Kit
BCR-KIT/BaF3 cells, sequence (P10721 26-976 limits assumed, change not shown): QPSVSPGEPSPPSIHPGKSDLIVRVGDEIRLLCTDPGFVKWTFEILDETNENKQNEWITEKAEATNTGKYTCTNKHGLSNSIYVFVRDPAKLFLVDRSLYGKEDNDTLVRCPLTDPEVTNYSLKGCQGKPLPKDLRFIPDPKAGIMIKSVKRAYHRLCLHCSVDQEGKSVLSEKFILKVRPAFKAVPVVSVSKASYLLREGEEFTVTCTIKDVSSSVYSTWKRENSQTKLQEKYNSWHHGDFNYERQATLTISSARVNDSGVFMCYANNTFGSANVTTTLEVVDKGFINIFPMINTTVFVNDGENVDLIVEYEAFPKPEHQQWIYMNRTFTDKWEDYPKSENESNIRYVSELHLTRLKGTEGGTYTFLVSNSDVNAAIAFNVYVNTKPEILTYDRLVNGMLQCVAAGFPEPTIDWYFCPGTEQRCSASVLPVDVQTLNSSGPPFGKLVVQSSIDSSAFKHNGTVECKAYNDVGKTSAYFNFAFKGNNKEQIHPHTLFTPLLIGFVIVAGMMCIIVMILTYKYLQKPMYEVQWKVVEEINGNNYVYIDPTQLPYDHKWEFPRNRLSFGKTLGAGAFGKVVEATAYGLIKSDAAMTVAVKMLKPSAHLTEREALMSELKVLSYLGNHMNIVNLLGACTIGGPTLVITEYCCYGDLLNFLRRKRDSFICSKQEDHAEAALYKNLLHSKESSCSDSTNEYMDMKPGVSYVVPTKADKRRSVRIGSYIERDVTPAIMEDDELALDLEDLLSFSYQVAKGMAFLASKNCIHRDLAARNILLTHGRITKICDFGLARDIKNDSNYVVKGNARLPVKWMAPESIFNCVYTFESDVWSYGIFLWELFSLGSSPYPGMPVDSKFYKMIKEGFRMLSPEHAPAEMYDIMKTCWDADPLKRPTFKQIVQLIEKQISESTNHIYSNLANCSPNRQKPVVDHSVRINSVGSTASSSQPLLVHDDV
Experimental: Compounds are assessed in a variety of cell based assays. For example BCR-FMS/BaF3, BCR-KIT/BaF3, M-NFS-60, M-07e, and BAC1.2F5 cell proliferation assays are used to assess inhibitory activity of Fms or Kit and MV-4-11 cell proliferation assay is used to assess inhibitory activity in Flt-3. Reagent and assay conditions are as follows: • BCR-FMS/BaF3 and BCR-KIT/BaF3 cells: • Maintained in RPMI containing 10% FBS, 1% PenStrep, 1% NEAA, and 1% L-Glutamine, supplemented with 1 mg/mL G418 and 5% WEHI-CM (or recombinant murine IL-3). • Confluent cells are split 1:50 to 1:100 every 3-4 days. • M-NFS-60 cells (ATCC #CRL-1838): • Maintained in RPMI containing 10% FBS, 1% Hepes, 1% NaPyruvate, and 0.45% Glucose, supplemented with 62 ng/mL murine M-CSF. • Confluent cells are split 1:20 every 3-4 days. • M-07e cells (DSMZ #ACC 104): • Maintained in IMDM containing 10% FBS, supplemented with either 200 ng/mL human SCF or […] SCF (R&D Systems 255-SC). • Confluent cells are split 1:5 to 1:10 every 3-4 days. • BAC1.2F5 cells: • Maintained in Alpha-MEM containing 10% Newborn Calf Serum (Invitrogen #26010-074) supplemented with 36 ng/mL murine M-CSF. • Confluent cells are split 1:4 every 3-4 days. • MV-4-11 cells: • Maintained in Iscove's Modified Dulbecco's Medium containing 10% FBS. • Confluent cells are split 1:4 every 3-4 days. On day 1, cells are counted, then centrifuged in a conical tube for 5 minutes at 1000 rpm. The supernatant is removed and cells are re-suspended as follows: • BCR-FMS/BaF3 and BCR-KIT/BaF3: resuspend in growth media+1 mg/mL G418 (without WEHI/IL-3) to 2×10^5 cells/mL. • M-NFS-60: resuspend in growth media +62 ng/mL murine M-CSF to 5×10^5 cells/mL. • M-07e: resuspend in growth media +200 ng/mL human SCF to 5×10^5 cells/mL. • BAC1.2F5: resuspend in growth media +36 ng/mL murine M-CSF to 1.4×10^5 cells/mL. • MV-4-11: resuspend in growth media +10% FBS to 5×10^5 cells/mL. The cells are plated (50 μL) in each well of a 96-well dish (Corning 3610) and incubated at 37° C. in 5% CO2 overnight, cells plated to a final concentration of cells as follows: • BCR-FMS/BaF3 and BCR-KIT/BaF3: 10,000 cells per well. • M-NFS-60: 25,000 cells per well. • M-07e: 25,000 cells per well. • BAC1.2F5: 7,000 cells per well. • MV-4-11: 25,000 cells per well. On day 2, compound at a maximum concentration of 5 mM is serially diluted 1:3 for a total of 8 point titration with DMSO as a control. A 1 μL aliquot of each dilution point is added to 249 μL growth media and 50 μL is added to a well containing cells, providing 10 μM compound for the maximum concentration point. The cells are incubated for 3 days at 37° C. in 5% CO2. On day 5, ATPlite 1 step Luminescence Assay System (Perkin Elmer #6016739) is brought to room temperature along with the cell cultures. ATPlite is added to each well as follows: • BCR-FMS/BaF3 and BCR-KIT/BaF3: 25 μL per well. • M-NFS-60: 25 μL per well. • M-07c: 40 μL per well. • BAC1.2F5: 50 μL per well. • MV-4-11: 40 μL per well. The cells are incubated at room temperature for 10 minutes, then luminescence is read on Safire reader. The measured luminescence correlates directly with cell number, such that the reading as a function of compound concentration is used to determine the IC50 value.

Fms kinase = Fms kinase (Homo sapiens (Human), UniProt P07333); assay: Fms kinase biochemical activity assay (AlphaScreen, biotin-(E4Y)10 phosphorylation); conditions: read-out: Biochemical activity (IC50 μM) Fms
Fms kinase, sequence (P07333 20-972): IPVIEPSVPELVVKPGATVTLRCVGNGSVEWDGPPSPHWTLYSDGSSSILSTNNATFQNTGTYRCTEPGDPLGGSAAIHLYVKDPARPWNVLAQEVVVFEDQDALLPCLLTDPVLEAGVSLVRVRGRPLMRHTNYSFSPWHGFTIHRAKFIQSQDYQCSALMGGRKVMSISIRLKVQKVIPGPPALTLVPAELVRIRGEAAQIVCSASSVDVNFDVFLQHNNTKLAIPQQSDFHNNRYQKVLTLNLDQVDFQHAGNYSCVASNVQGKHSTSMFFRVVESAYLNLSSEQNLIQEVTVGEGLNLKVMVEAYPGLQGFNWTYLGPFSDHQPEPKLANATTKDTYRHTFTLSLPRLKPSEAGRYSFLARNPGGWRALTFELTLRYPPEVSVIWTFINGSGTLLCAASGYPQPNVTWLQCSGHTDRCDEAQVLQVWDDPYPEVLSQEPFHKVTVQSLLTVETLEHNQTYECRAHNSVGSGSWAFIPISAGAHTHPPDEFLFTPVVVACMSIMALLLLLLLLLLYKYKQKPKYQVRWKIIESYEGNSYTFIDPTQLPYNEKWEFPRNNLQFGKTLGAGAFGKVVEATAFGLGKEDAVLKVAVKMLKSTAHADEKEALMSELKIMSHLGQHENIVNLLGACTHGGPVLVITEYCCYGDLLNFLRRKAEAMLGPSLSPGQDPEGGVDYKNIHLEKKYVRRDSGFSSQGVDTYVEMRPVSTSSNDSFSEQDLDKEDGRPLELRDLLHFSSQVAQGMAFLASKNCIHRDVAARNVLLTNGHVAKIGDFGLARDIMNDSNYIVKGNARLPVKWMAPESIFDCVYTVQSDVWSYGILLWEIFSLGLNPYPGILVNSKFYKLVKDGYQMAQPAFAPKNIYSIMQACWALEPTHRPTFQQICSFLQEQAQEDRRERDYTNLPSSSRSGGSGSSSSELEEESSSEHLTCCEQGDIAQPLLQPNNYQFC
Experimental: In one assay the biochemical activity IC50 values are determined with respect to inhibition of Fms kinase activity, where inhibition of phosphorylation of a peptide substrate is measured as a function of compound concentration. Compounds to be tested, dissolved in DMSO (1 μL), are added to a white 384-well plate (Costar #3705). Working stocks of Fms kinase (Invitrogen #PV3249), biotin-(E4Y)10 substrate (Upstate Biotech, Cat#12-440), and ATP (Sigma, Cat#A-3377) are prepared in 25 mM Hepes pH 7.5, 0.5 mM MgCl2, 2 mM MnCl2, 2 mM DTT, 0.01% BSA, and 0.01% Tween-20. All components are added to the 384-well plate for a final concentration of 1 ng/well Fms, 30 nM biotin-(E4Y)10 (Upstate Biotechnology) and 100 μM ATP in a volume of 20 μL. Each sample is at 5% DMSO. The plate is then incubated for 20 minutes at 30° C. Just before use, working stocks of donor and acceptor beads from the AlphaScreen PY20 Detection Kit (PerkinElmer, Cat#676601M) are prepared in 25 mM Hepes pH 7.5, pH 7.4, 100 mM EDTA, 0.01% BSA. To stop the reaction, the plate is uncovered in the dark and 5 μL of Donor Beads solution (Streptavidin beads) is added to each well. The plate is incubated at room temperature for 20 minutes. Five microliters of Acceptor Beads solution (PY20 coated beads) are then added to each well. The final concentration of each bead is 10 μg/mL. The plates are incubated at room temperature for 60 minutes. Fluorescence signal is recorded on the Envision reader. […] The signal vs. compound concentration is used to determine the IC50.

[1] = Turbidity assay of relative solubility in aqueous buffers; type: physicochemical; conditions: pH 4.5 (SIF)
Experimental: As an indication of relative solubility, the turbidity of compounds in aqueous solutions is assessed. To assess possible compound properties in different physiological compartments, such as stomach, intestine, and blood, a series of aqueous buffers with varying pH is used. Thus each compound is diluted into four different physiologically relevant buffers and solution turbidity is measured by spectrophotometry.
Compounds are dissolved at a concentration of 25 mM in dimethyl sulfoxide, then serially diluted 1:1 into a 96 well plate, diluting 10 times in pure dimethyl sulfoxide, with the final well of each row a dimethyl sulfoxide blank. In an assay plate, 99 μL of appropriate buffer is added to each well, and 1 μL of each sample dilution is added to the buffer, achieving a range of final total concentrations in aqueous solutions having different pH. The buffers used are Simulated Gastric Fluid (SGF-pH 1.5) 0.5M NaCl, pH 1.5; Simulated Intestinal fluid (SIF-pH 4.5 and pH 6.8) 0.05M NaH2PO4, pH 4.5 and 6.8; and Hepes Buffer (HEPES-pH 7.4) 10 mM HEPES, 150 mM NaCl, pH 7.4. Control compounds pyrene, estriol and propranolol HCl are also assessed. Plates are spun and then mixed for 1 minute, and the absorbance is read using a Tecan Safire II to read wavelengths in the visible range (490, 535, and 650 nm) at four locations per well, reflecting the degree of turbidity present. The average optical density for each wavelength in each well is graphed vs. compound concentration, and the concentration at which the curve crosses a threshold O.D. of 0.01 for each wavelength is reported as the endpoint turbidity assay result. The average of the three wavelengths is used to compare turbidity of compounds. Compounds are considered to have low solubility if the threshold concentration is <31.3 μM, moderate solubility if the threshold concentration is 31.3 μM to 250 μM, and high solubility if the threshold concentration is >250 μM.

BCR-FMS/BaF3 cells, sequence (P07333 20-972 limits assumed, change not shown): as the sequence (P07333 20-972) above

IC50 (BCR-FMS/BaF3 cells; BCR-FMS/BaF3 cells, read-out: BCR/BaF3 (IC50 μM) Fms) [µM] | BCR/BaF3 selectivity (Kit IC50/Fms IC50) (BCR-FMS/BaF3 cells; Kit IC50/Fms IC50, BCR-KIT/BaF3 vs BCR-FMS/BaF3 cells) | IC50 (BCR-KIT/BaF3 cells) [µM] | IC50 (Fms kinase) [µM] | SMILES | turbidity threshold (L, M, H) 4.5 [1]
< 0.1 | >20 | > 0.1 | < 0.1 | COc1ccc(CNc2ccc(Cc3c[nH]c4ncc(Cl)cc34)cn2)c(OC)n1 [Compound P-1496, [5-(5-Chloro-1H-pyrrolo[2,3-b]pyridin-3-ylmethyl)-pyridin-2-yl]-(2,6-dimethoxy-pyridin-3-ylmethyl)-amine] | –
– | – | – | – | COc1ncc(F)cc1CNc1ccc(Cc2c[nH]c3ncc(C#N)cc23)c(F)n1 [Compound P-2193, 3-{2-Fluoro-6-[(5-fluoro-2-methoxy-pyridin-3-ylmethyl)-amino]-pyridin-3-ylmethyl}-1H-pyrrolo[2,3-b]pyridine-5-carbonitrile] | L (low solubility if the threshold concentration is <31.3 μM)
